| Structure (SMILES) | melting point [°C] |
| --- | --- |
| CCCOc1ncc(C#C[Si](C)(C)C)cc1-c1nc2c(CC)nn(CCN3CCOCC3)c2c(=O)[nH]1 | 132 to 134 |
| O=C1c2cccc(SCCCCCCO)c2C(=O)c2cccc(SCCCCCCO)c21 | 195 to 196 |
| CC(=O)c1ccc(-c2cnn3c(O)ncnc23)cc1 | > 300 |
| CN1c2ccccc2CC(=O)c2ccccc21 | 92 to 93 |
| CC(C)(C)OC(=O)N1CCN(c2cccc3c2cnn3S(=O)(=O)c2ccccc2)CC1 | 130 |
| CC(C)C(=O)Oc1ccc2nc(NC(=O)Nc3ccccc3)sc2c1 | 212 to 215 |
| CCOC(=O)C(Oc1ccc(Cl)cc1)C(=O)OCC | 43.5 to 45 |
| Cn1c(NCCOS(C)(=O)=O)cc(=O)n(C)c1=O | 169 to 170 |
| CC1(C)N[C@H](Cc2ccc(Br)cc2)[C@@H]2C(=O)N(Cc3ccccc3)C(=O)[C@@H]21 (racemic) | 142 to 143 |
| CC(=O)c1cc2c(cc1F)OC(C)(C)[C@@H](O)[C@@H]2NC(=O)c1ccc(F)cc1 (relative stereo) | 200 to 203 |
| O=c1oc(-c2ccc(-n3ccnc3)c(C(F)(F)F)c2)nn1Cc1cc(Cl)ccc1O | 178 to 180 |
| O=C1c2c(-c3ccccc3)noc2CCC1CCCN1CCC(O)(c2ccc(Cl)cc2)CC1 (centres undefined) | 147 to 148 |
| Cc1cccc(NC(=O)NC2N=C(C3CCCCC3)c3cccc(C)c3N(CC(=O)N3CCCCCCC3)C2=O)c1 (centres undefined) | 154 to 155 |
| O=S1(=O)c2ccccc2NC(CO)c2cccn21 (centres undefined) | 135 to 136 |
| COc1cc(C(=O)Nc2nn(-c3ccccc3)cc2C=O)ccc1OCc1nc(-c2ccccc2)oc1C | 234 to 235 |
| C=CC(C)(C)C(O)(COc1ccc(-c2ccccc2)cc1)Cn1ccnc1 (centres undefined) | 151 to 153 |
| N#CC=C1CCN(c2ccc(N3C[C@H](CNC(=O)C(Cl)Cl)OC3=O)cc2F)CC1 | 159 to 161 |
| COc1ccc2c(c1)CC(=O)NC2=O | 212 to 215 |
| C[C@]12CCC(=O)N[C@@H]1CCc1cc(Sc3ccc(F)cc3)ccc12 | 179 to 181 |
| COc1ccc(N(C(C)=O)C2=NN(c3ccc([N+](=O)[O-])cc3)C(=O)C2Br)cc1 (centres undefined) | 163 to 164 |
| CCOCc1nc2c(N)nc3ccccc3c2n1CCCC(=O)N(C)OC | 163 to 165 |
| CCOC(=O)C1=C(C)NC(CSCCl)=C(C(=O)OCC)C1c1cccc([N+](=O)[O-])c1 (centres undefined) | 157 to 159 |

| Structure (SMILES) | melting point [°C] |
| --- | --- |
| COc1nc(N2C(=O)C3CCCCN3C2=O)c(F)cc1C#N (centres undefined) | 159 to 170 |
| CCCCCn1c2ccccc2c2cc(C(=O)NCC(C)(C)C)ncc21 | 91 to 92 |
| C[N+]([O-])=NNc1cccnc1 | 95 to 97 |
| Nc1nc2ccccc2c2c1ncn2CCSc1ccccc1 | 233 to 235 |
| COc1cccc(C23CCN(Cc4ccccc4)C(CC(=O)C2)C3)c1 (centres undefined) | 108 to 109 |
| CCC1(O)CC(=O)OCc2c1cc1n(c2=O)Cc2c-1nc1ccccc1c2-c1ccc(C)cc1 (centres undefined) | > 280 |
| Cc1nc(-c2ccc(C#N)cc2)sc1C(=O)N(CC(=O)O)[C@H](C)[C@](O)(Cn1cncn1)c1ccc(F)cc1F | 153 to 159 |
| COc1ccc2cccc(CC(=O)O)c2c1 | 154 to 156 |
| N#Cc1ccc(C(=O)NC2CCCNC(=O)C2)cc1 (centres undefined) | 189 to 190 |
| C#Cc1cccc(Nc2ncnc3cnc(NC(=O)/C=C/CN(C)C)cc23)c1 | 163 to 166 |
| CCOC(=O)c1c(Cl)c2cscc2[nH]c1=O | 157 |
| CCOC(=O)Nc1nc(C)c(-c2nc3ccccc3c(=O)n2-c2cccc(Cl)c2)s1 | 262 to 263 |
| COc1cccc(OC)c1C(=O)C=Cc1ccccc1 | 123 to 124 |
| CCOc1cccc2c(=O)c3ccccc3sc12 | 112 to 115 |
| O=C(NCc1ccccc1)C1(CCCc2ccccc2)c2ccccc2-c2ccccc21 | 94 |
| CN(C)c1cccc2c(S(=O)(=O)Nc3ccc([N+](=O)[O-])cn3)cccc12 | 196 |
| O=C1C(=Cn2ccnc2)C(c2ccccc2)Oc2ccccc21 (centres undefined) | 129 to 131 |
| CC(=O)Nc1nc2c(ncn2CCC(CO)CO)c(=O)[nH]1 | 143 to 146 |
| Cc1cc(C2=NOC(c3cc(Cl)cc(Cl)c3)(C(F)(F)F)C2)ccc1C(=O)O (centres undefined) | 146 to 148 |
| CN(C)C(=O)c1ccc(-c2ccc3nnn(Cc4ccc5ncccc5c4)c3n2)cc1F | 163 to 165 |
| CNC(=O)c1ccccc1Nc1nc(Nc2ccc3c(c2)NC(=O)CCC3)ncc1Cl | 293 to 295 |

More lines, now with the values ahead:

| melting point [°C] | Structure (SMILES) |
| --- | --- |
| 220 | Cc1cc(C)cc(Nc2ccc(Nc3ccccc3)c3c2C(=O)c2ccccc2C3=O)c1 |
| 258 to 260 | CCCCc1nc(=O)c2cc(I)ccc2[nH]1 |
| 229 | Cc1cc2cc(CN3CCC(C(=O)N(C)C)CC3)cnc2cc1NC(=O)c1ccc(-c2ccc(F)cc2)cc1 |
| 280 | COc1cc(Cc2cnc(N)nc2N)c(Cc2cnc(N)nc2N)cc1OC |
| 137 to 139 | c1cncc(Nc2nnc(Cc3ccncc3)c3ccccc23)c1 |
| 155 to 159 | CCn1cc2c(C3CC3CNC(C)=O)cccc2n1 (centres undefined) |
| 124 to 126 | CON=C(C(=O)NN)c1ccccc1COc1cc(C)ccc1C |
| 106 to 108 | CCCCc1nc2ccccn2c(=O)c1-c1ccc(OS(=O)(=O)C(F)(F)F)cc1 |
| 183 to 185 | CC(=O)N1CCc2cc(N)ccc21 |
| 72.5 to 74 | CCCCCCCCCC(C)NC(=O)C=C(C)c1cccc([N+](=O)[O-])c1 (centres undefined) |
| 62 to 70 | COc1ccc2cc(C(C)C(=O)ON(C(N)=O)C(C)c3cc4ccccc4s3)ccc2c1 (centres undefined) |
| 161 to 164 | CN(c1cc(Cl)ccc1C(=O)O)S(C)(=O)=O |
| 153 to 155 | Cn1c(NO)cc(=O)n(C2CCCCC2)c1=O |
| 81 | CCCCc1oc2ccc([N+](=O)[O-])cc2c1C(=O)c1ccc(OCCBr)cc1 |
| 183 to 185 | Oc1ccc(C2=C(c3ccccc3)CCCc3cc(OC4CCCCO4)ccc32)cc1 (centres undefined) |
| 191 to 193 | CC1=C(C(=O)NC(C)(C)C)C(c2ccccc2Cl)C(C(=O)NC(C)C)=C(COCCn2c(C)nc3ccccc32)N1 (centres undefined) |
| 144 to 145 | CC(CS(=O)(=O)c1ccc(Oc2ccc(Cl)cc2)cc1)N(O)C=O (centres undefined) |
| 184 to 185 | COC(=O)[C@H](O)[C@@H](NC(=O)c1ccccc1)c1ccccc1 |
| 117 | C#CCOCCn1c(CN2CCN(C)CC2)nc2cccnc21 |
| 127 to 130 | CC(Br)C(=O)c1ccc(CN2C(=O)c3ccccc3C2=O)s1 (centres undefined) |
| 143 to 145 | O=C(OC(C(F)(F)F)C(F)(F)F)c1c2ccccc2nc2ccccc12 |
| 103 to 105 | CCN(CC)CCNC(=O)c1ccc(I)c2cc3ccccc3nc12 |
| 127 to 130 | O=C1NN(C(=O)Nc2ccc(OCc3ccccc3)cc2)C(c2ccccc2)C1c1ccccc1 (centres undefined) |
| > 300 | CCCn1c(=O)c2c(NC)n[nH]c2n(Cc2cccnc2)c1=O |
| 97 to 98 | COc1cc2c(cc1OC)N(C(=O)C=Cc1ccccc1)CC(N(C)C)C2 (centres undefined) |
| 163 to 165 | O=C1Nc2ccccc2C(c2ccccc2)N1CC1CCN(Cc2ccccc2)CC1 (centres undefined) |

Source: a melting point compilation (Tetko et al.; mined from patent text by program, amines drawn as free bases though some values may be those of a salt)
